Results reported in patent US11071735B2, “Treatment of inflammatory conditions and autoimmune diseases with glucose uptake inhibitors” (Kadmon Corporation, LLC, priority 2017, dated 2021).

Legend:
Assay type in all cases: cell-based
GLUT = assay: glycolysis assay (oligomycin + Cell Titer-Glo ATP readout) in HT1080 cells; conditions: 10 μM oligomycin, one hour, glycolytically-derived ATP
Excerpt: The combination of inhibitors of both oxidative phosphorylation and glycolysis synergistically suppress cellular ATP levels. Therefore, our assay utilizes the combination of our glucose uptake inhibitors with oligomycin, a well-characterized inhibitor of ATP synthase. Because oligomycin inhibits ATP derived from oxidative phosphorylation, any remaining ATP production is derived from glycolysis. By reading out cellular ATP levels using the Promega
Titer Glo kit, we can assess the extent of glycolysis inhibition by our glucose uptake inhibitors. Using this experimental set-up in HT1080 cancer cells, we determined the IC50 of glycolysis inhibition for the compounds.
(§1) Determination of glucose uptake/GLUT activity (glycolysis assay): HT1080 cells, DLD1 cells (WT and GLUT1−/−) and human CD4+ T cells were plated in 96-well plates. Cells were exposed to the combination of 10 μM Oligomycin (to block mitochondrial-derived ATP) and the glucose uptake inhibitors disclosed herein for one-hour, after which glycolytically-derived ATP was measured with the Cell Titer-Glo assay kit (Promega). Dose-response curves of the glucose uptake inhibitors disclosed herein were used to determine the IC50 for GLUT activity.

GLUT1 = biological target: T1, GLUT1 (Homo sapiens, UniProt P11166); assay: glycolysis assay in DLD1 WT cells (rely on GLUT1); conditions: DLD1-WT cells; 10 μM oligomycin, one hour
T1 construct: endogenous in cells; host or cells: DLD1 WT cancer cells
T1 sequence (P11166 1-492): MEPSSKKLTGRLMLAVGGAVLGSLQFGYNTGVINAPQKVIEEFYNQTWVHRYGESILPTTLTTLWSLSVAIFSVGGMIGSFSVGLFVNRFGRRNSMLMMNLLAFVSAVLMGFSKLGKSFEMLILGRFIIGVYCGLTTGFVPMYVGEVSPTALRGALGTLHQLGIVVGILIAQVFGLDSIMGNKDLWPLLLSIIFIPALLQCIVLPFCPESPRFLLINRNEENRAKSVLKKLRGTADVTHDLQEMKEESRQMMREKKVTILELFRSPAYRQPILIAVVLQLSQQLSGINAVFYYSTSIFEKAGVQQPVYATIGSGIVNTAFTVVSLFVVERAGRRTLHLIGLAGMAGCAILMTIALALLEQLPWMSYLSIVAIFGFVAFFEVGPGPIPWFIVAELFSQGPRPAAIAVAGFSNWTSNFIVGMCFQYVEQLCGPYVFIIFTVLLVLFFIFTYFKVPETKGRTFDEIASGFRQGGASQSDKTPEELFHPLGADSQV
Experimental: (§2) Cells were treated with GLUT inhibitors plus oligomycin and subsequently ATP levels were determined using Cell Titer Glo. […] FIG. 1B reports the IC50 of glycolysis inhibition for selected compounds.
(§3) Accordingly, we have investigated the use of inhibitors of GLUT transporters against activated pro-inflammatory immune cells, including but not limited to activated human CD4+ T cells. In order to understand what GLUT transporters are required to sustain glycolysis in activated T cells, we first utilized the syngeneic cancer cell lines DLD1 WT and DLD GLUT1−/− that rely on GLUT1 and GLUT3 expression, respectively, for glucose transport. Within this system, we have identified small molecules that simultaneously have the property of inhibiting both GLUT1 and GLUT3 mediated glucose transport. In addition, we have confirmed the GLUT1-selective nature of a published small molecule inhibitor of GLUT1 (Chem Med Chem. 2016 Oct. 19; 11(20):2261-2271).
as §1

GLUT3 = biological target: T2, GLUT3 (Homo sapiens, UniProt P11169); assay: glycolysis assay in DLD1 GLUT1−/− cells (rely on GLUT3); conditions: DLD1-KO (GLUT1−/−) cells; 10 μM oligomycin, one hour
T2 construct: endogenous in cells; host or cells: DLD1 GLUT1−/− (knock-out) cancer cells
T2 sequence (P11169 1-496): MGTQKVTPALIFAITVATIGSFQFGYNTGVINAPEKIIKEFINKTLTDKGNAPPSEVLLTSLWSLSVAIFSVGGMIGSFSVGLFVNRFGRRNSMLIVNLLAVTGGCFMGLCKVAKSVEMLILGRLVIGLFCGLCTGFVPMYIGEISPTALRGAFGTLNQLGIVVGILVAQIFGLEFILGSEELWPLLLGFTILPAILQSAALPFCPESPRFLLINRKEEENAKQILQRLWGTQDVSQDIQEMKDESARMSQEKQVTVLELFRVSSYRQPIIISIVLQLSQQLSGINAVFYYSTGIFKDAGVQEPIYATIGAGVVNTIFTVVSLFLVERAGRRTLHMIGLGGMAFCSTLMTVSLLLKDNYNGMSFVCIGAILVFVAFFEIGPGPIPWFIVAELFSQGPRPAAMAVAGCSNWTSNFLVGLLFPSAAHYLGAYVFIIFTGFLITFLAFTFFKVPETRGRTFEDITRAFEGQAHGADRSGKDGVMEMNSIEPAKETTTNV
Experimental: as §2, §3, §1

IC50 (GLUT) [nM]	IC50 (GLUT1) [nM]	IC50 (GLUT3) [nM]	SMILES
258	463	110	COc1ccc2nc(-c3cccc(OCC(=O)NC(CF)CF)c3)nc(Nc3ccc(-c4cn[nH]c4)cc3)c2c1 [Ex. 23, 2-(3-(4-((4-(1H-pyrazol-4-yl)phenyl)amino)-6-methoxyquinazolin-2-yl)phenoxy)-N-(1,3-difluoropropan-2-yl)acetamide]
107	48.8	191	CC(C)NC(=O)COc1cccc(-c2nc(Nc3ccc(-c4cn[nH]c4)cc3)c3cc(OC(C)C)ccc3n2)c1 [Ex. 41, 2-(3-(4-((4-(1H-pyrazol-4-yl)phenyl)amino)-6-isopropoxyquinazolin-2-yl)phenoxy)-N-isopropylacetamide]
46	34.4	58.9	CCC(C)NC(=O)COc1cccc(-c2nc(Nc3ccc(-c4cn[nH]c4)cc3)c3cc(OCCF)ccc3n2)c1 (stereo not drawn) [Ex. 43, 2-(3-(4-((4-(1H-pyrazol-4-yl)phenyl)amino)-6-(2-fluoroethoxy)quinazolin-2-yl)phenoxy)-N-(sec-butyl)acetamide]
424	802	183	CC(C)NC(=O)COc1cccc(-c2nc(Nc3ccc(-c4cn[nH]c4)cc3)c3cc(F)ccc3n2)c1 [Ex. 33, 2-(3-(4-((4-(1H-pyrazol-4-yl)phenyl)amino)-6-fluoroquinazolin-2-yl)phenoxy)-N-isopropylacetamide]
81.5	71.6	110	CC[C@H](C)NC(=O)COc1cccc(-c2nc(Nc3ccc(-c4cn[nH]c4)cc3)c3cc(OC)ccc3n2)c1 [Ex. 48, (S)-2-(3-(4-((4-(1H-pyrazol-4-yl)phenyl)amino)-6-methoxyquinazolin-2-yl)phenoxy)-N-(sec-butyl)acetamide]
25.1	25.2	40.6	CC[C@H](C)NC(=O)COc1cccc(-c2nc(Nc3ccc(-c4cn[nH]c4)cc3)c3cc(OCCOC)ccc3n2)c1 [Ex. 45, (S)-2-(3-(4-((4-(1H-pyrazol-4-yl)phenyl)amino)-6-(2-methoxyethoxy)quinazolin-2-yl)phenoxy)-N-(sec-butyl)acetamide]
111	94.9	133	CC[C@H](C)NC(=O)COc1cccc(-c2nc(Nc3ccc(-c4cn[nH]c4)cc3)c3cc(F)ccc3n2)c1 [Ex. 47, (S)-2-(3-(4-((4-(1H-pyrazol-4-yl)phenyl)amino)-6-fluoroquinazolin-2-yl)phenoxy)-N-(sec-butyl)acetamide]
367	529	76.1	COc1ccc2nc(-c3cccc(OCC(=O)NC4CC4)c3)nc(Nc3ccc(-c4cn[nH]c4)cc3)c2c1 [Ex. 9, 2-(3-(4-((4-(1H-pyrazol-4-yl)phenyl)amino)-6-methoxyquinazolin-2-yl)phenoxy)-N-cyclopropylacetamide]
173	261	97.6	COc1ccc2nc(-c3cccc(OCC(=O)NC(C)C)c3)nc(Nc3ccc(-c4cn[nH]c4)cc3)c2c1 [Ex. 8, 2-(3-(4-((4-(1H-pyrazol-4-yl)phenyl)amino)-6-methoxyquinazolin-2-yl)phenoxy)-N-isopropylacetamide]
166	334	92.2	CCOc1ccc2nc(-c3cccc(OCC(=O)NCC(C)C)c3)nc(Nc3ccc(-c4cn[nH]c4)cc3)c2c1 [Ex. 17, 2-(3-(4-((4-(1H-pyrazol-4-yl)phenyl)amino)-6-ethoxyquinazolin-2-yl)phenoxy)-N-isobutylacetamide]
134	130	94.2	CCOc1ccc2nc(-c3cccc(OCC(=O)N[C@@H](C)CC)c3)nc(Nc3ccc(-c4cn[nH]c4)cc3)c2c1 [Ex. 35, (S)-2-(3-(4-((4-(1H-Pyrazol-4-yl)phenyl)amino)-6-ethoxyquinazolin-2-yl)phenoxy)-N-(sec-butyl)acetamide]
454	801	86	CCOc1ccc2nc(-c3cccc(OCC(=O)NCC(F)(F)F)c3)nc(Nc3ccc(-c4cn[nH]c4)cc3)c2c1 [Ex. 24, 2-(3-(4-((4-(1H-pyrazol-4-yl)phenyl)amino)-6-ethoxyquinazolin-2-yl)phenoxy)-N-(2,2,2-trifluoroethyl)acetamide]
44.7	38.5	72.1	CC[C@@H](C)NC(=O)COc1cccc(-c2nc(Nc3ccc(-c4cn[nH]c4)cc3)c3cc(OCCF)ccc3n2)c1 [Ex. 50, (R)-2-(3-(4-((4-(1H-pyrazol-4-yl)phenyl)amino)-6-(2-fluoroethoxy)quinazolin-2-yl)phenoxy)-N-(sec-butyl)acetamide]
242	52	129	CCOc1ccc2nc(-c3cccc(OCC(=O)NC4CC4)c3)nc(Nc3ccc(-c4cn[nH]c4)cc3)c2c1 [Ex. 1, 2-(3-(4-((4-(1H-pyrazol-4-yl)phenyl)amino)-6-ethoxyquinazolin-2-yl)phenoxy)-N-cyclopropylacetamide]
418	797	197	CC(C)NC(=O)COc1cccc(-c2nc(Nc3ccc(-c4cn[nH]c4)cc3)c3ccc(F)cc3n2)c1 [Ex. 34, 2-(3-(4-((4-(1H-Pyrazol-4-yl)phenyl)amino)-7-fluoroquinazolin-2-yl)phenoxy)-N-isopropylacetamide]
196	146	290	CC[C@H](C)NC(=O)COc1cccc(-c2nc(Nc3ccc(-c4cn[nH]c4)cc3)c3ccc(F)cc3n2)c1 [Ex. 54, (S)-2-(3-(4-((4-(1H-pyrazol-4-yl)phenyl)amino)-7-fluoroquinazolin-2-yl)phenoxy)-N-(sec-butyl)acetamide]
92	81	104	CCOc1ccc2nc(-c3cccc(OCC(=O)NC4CCCC4)c3)nc(Nc3ccc(-c4cn[nH]c4)cc3)c2c1 [Ex. 5, 2-(3-(4-((4-(1H-pyrazol-4-yl)phenyl)amino)-6-ethoxyquinazolin-2-yl)phenoxy)-N-cyclopentylacetamide]

SMILES	IC50 (GLUT) [nM]	IC50 (GLUT1) [nM]	IC50 (GLUT3) [nM]
COc1ccc2nc(-c3cccc(OCC(=O)NC(C)C)c3)nc(Nc3ccc(-c4cn[nH]c4)cc3F)c2c1 [Ex. 20, 2-(3-(4-((2-fluoro-4-(1H-pyrazol-4-yl)phenyl)amino)-6-methoxyquinazolin-2-yl)phenoxy)-N-isopropylacetamide]	423	709	177
CCCOc1ccc2nc(-c3cccc(OCC(=O)NC(C)(C)C)c3)nc(Nc3ccc(-c4cn[nH]c4)cc3)c2c1 [Ex. 37, 2-(3-(4-((4-(1H-Pyrazol-4-yl)phenyl)amino)-6-propoxyquinazolin-2-yl)phenoxy)-N-(tert-butyl)acetamide]	128	89.3	158
CCCNC(=O)COc1cccc(-c2nc(Nc3ccc(-c4cn[nH]c4)cc3)c3cc(OCC)ccc3n2)c1 [Ex. 16, 2-(3-(4-((4-(1H-pyrazol-4-yl)phenyl)amino)-6-ethoxyquinazolin-2-yl)phenoxy)-N-propylacetamide]	536	1020	127
